IC50 data for 45 compounds are collected here from patent US10696655B2, “Therapeutic compounds and uses thereof” (GENENTECH, INC., priority 2017, dated 2020).

As a reminder, the IC50 is the concentration that inhibits the measured activity by half.

For the assay, the target named is CBP (Homo sapiens (Human), UniProt Q92793). Briefly: CBP TR-FRET binding assay.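 Also: displacement of a biotinylated small-molecule ligand from purified recombinant CBP read by TR-FRET, DMSO-only wells as control, IC50 from nonlinear curve fit.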 The conditions noted are these: His/Flag tagged CBP 4 nM, biotin-ligand 60 nM; read-out: CBP HTRF IC50.
Sequence of CBP (Q92793 whole entry): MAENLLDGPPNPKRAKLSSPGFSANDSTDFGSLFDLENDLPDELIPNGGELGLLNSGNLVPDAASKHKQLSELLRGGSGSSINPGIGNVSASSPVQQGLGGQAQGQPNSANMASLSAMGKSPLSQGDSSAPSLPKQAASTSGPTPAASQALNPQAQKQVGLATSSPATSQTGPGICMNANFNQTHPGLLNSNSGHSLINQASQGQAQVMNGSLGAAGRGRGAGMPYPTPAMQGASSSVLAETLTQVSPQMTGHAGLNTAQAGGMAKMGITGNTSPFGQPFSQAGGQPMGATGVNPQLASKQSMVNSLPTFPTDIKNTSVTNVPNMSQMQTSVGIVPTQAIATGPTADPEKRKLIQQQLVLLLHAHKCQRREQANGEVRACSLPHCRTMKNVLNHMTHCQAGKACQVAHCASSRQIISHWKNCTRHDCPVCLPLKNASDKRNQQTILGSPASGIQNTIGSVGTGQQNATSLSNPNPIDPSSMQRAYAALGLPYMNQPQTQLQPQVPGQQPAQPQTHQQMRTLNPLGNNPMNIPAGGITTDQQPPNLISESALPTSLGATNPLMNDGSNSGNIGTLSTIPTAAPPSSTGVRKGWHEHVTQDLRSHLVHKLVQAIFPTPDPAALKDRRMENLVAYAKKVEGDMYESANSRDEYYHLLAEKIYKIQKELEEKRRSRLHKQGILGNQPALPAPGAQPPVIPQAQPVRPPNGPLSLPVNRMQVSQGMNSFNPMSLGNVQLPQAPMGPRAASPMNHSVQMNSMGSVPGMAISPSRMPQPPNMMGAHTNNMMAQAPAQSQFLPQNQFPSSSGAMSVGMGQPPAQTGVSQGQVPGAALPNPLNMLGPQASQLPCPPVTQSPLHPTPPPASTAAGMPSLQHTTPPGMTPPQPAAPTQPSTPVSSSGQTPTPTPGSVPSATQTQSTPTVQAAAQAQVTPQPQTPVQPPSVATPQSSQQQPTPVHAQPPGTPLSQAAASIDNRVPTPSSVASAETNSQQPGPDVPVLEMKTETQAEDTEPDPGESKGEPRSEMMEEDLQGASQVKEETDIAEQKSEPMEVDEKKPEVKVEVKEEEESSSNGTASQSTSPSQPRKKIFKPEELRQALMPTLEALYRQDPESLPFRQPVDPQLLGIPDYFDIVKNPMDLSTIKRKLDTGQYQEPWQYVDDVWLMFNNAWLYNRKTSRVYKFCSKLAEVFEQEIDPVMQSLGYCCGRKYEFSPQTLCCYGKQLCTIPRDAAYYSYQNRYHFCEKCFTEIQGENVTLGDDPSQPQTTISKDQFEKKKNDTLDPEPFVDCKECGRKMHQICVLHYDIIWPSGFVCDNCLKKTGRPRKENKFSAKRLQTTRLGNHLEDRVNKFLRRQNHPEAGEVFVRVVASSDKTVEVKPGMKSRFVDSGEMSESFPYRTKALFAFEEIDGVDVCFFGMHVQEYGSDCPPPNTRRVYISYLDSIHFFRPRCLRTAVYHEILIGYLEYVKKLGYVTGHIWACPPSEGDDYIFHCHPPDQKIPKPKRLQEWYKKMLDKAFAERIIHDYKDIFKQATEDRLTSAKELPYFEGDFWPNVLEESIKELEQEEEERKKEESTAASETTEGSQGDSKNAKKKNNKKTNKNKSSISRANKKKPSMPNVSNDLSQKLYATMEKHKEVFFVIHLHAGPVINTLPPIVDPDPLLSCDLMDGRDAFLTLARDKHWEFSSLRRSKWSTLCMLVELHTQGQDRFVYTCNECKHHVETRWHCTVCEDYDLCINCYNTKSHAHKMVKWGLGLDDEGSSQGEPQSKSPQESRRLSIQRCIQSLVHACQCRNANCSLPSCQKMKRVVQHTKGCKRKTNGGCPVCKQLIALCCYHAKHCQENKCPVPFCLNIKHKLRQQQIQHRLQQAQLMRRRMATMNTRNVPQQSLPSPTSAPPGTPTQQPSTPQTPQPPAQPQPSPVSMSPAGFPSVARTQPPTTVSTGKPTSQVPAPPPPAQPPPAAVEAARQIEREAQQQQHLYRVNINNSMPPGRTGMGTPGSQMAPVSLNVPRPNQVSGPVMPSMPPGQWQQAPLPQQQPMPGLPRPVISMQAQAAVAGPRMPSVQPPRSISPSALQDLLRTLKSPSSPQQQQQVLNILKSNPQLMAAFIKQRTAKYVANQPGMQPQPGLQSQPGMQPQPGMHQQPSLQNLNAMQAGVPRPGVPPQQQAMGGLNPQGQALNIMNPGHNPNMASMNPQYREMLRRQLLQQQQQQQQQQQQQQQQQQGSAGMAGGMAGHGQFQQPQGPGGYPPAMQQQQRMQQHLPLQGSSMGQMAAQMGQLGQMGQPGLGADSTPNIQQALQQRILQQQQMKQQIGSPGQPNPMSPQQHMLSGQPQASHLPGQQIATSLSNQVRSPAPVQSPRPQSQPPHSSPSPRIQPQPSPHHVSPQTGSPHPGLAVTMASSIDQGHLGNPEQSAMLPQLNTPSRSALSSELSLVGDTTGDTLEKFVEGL
Procedure: IC50 Measurements for Inhibitors Using CBP TR FRET Binding Assay
His/Flag epitope tagged CBP was cloned, expressed, and purified to homogeneity. CBP binding and inhibition was assessed by monitoring the engagement of a biotinylated small molecule compound with the target using the TR-FRET assay technology (Perkin-Elmer). Specifically, in a 384 well ProxiPlate CBP (4 nM final) was combined with biotin-ligand (60 nM final) in 50 mM HEPES (pH 7.5), 50 mM NaCl, 1 mM TCEP, 0.01% (w/v) BSA, and 0.008% (w/v) Brij-35 either in the presence of DMSO (final 0.2% DMSO) or compound dilution series in DMSO. […] After twenty minutes of equilibration, the plates were read on an Envision instrument and IC50S calculated using a four parameter non-linear curve fit.
`CNC(=O)N1CCOc2ccc(-c3c(C)ccc4[nH]ncc34)cc2C1` [Example 9]: the IC50 came to 78 nM.

With `CNC(=O)c1ccc2nccc(N3CCCc4cc(-c5cnn(C)c5)ccc43)c2c1` [Example 29], the IC50 amounted to 160 nM.

`CNC(=O)N1CCOc2ccc(-c3c(F)ccc4[nH]ccc34)cc2C1` [Example 12]: the IC50 amounted to 59 nM.

As for `CNC(=O)N1CCOc2ccc(-c3c(C)ccc(-c4cnn(C)c4)c3C(F)F)cc2C1` [Example 76, 7-(2-(difluoromethyl)-6-methyl-3-(1-methyl-1H-pyrazol-4-yl)phenyl)-N-methyl-2,3-dihydrobenzo[f][1,4]oxazepine-4(5H)-carboxamide], the IC50 was 243 nM.

As for `CNC(=O)c1ccc2nccc(N3CCCc4cc(-c5cnn(C)c5)c(C(F)F)cc43)c2c1` [Example 27, 4-[7-(difluoromethyl)-6-(1-methylpyrazol-4-yl)-3,4-dihydro-2H-quinolin-1-yl]-N-methyl-quinoline-6-carboxamide], the IC50 was found to be 34 nM.

With `CNC(=O)[C@@H]1CCc2ccc(N3CCCc4cc(-c5cnn(C)c5)c(C(F)F)cc43)nc21` [Example 118, (R)-2-(7-(difluoromethyl)-6-(1-methyl-1H-pyrazol-4-yl)-3,4-dihydroquinolin-1(2H)-yl)-N-methyl-6,7-dihydro-5H-cyclopenta[b]pyridine-7-carboxamide], the IC50 was 3240 nM.

Consider `CNC(=O)N1CCOc2ccc(-c3cccc4nn(C)cc34)cc2C1` [Example 5], for which the IC50 amounted to 296 nM.

As for `Cn1cc(-c2cc3c(cc2C(F)F)N(c2cc4c(cn2)n(C)c(=O)n4C)CCC3)cn1` [Example 24], the IC50 worked out at 106 nM.

On to `CNC(=O)c1n[nH]c2ccc(N3CCCc4cc(-c5cnn(C)c5)c(C(F)F)cc43)nc12` [Example 71], for which the IC50 was found to be 187 nM.

`CNC(=O)N1CCOc2ccc(-c3cc(C)ccc3C)cc2C1` [Example 7]: the IC50 was 273 nM.

As for `Cn1cc(-c2ccc3c(c2)CCCN3c2ccc3sc(=O)n(C)c3c2)cn1` [Example 23], the half-inhibitory concentration (IC50) turned out to be 317 nM.

With `Cn1cc(-c2cc3c(cc2C(F)F)N(c2ccc4c(n2)n(C)c(=O)n4C)CCC3)cn1` [Example 26], the half-maximal inhibitory concentration (IC50) stood at 2280 nM.

`CNC(=O)N1CCOc2ccc(-c3cccc4cnn(C)c34)cc2C1` [Example 8]: the IC50 is 394 nM.

Consider `CC(=O)N1CCc2c(cc(-c3cccc4cc(-c5cnn(C)c5)ncc34)c(=O)n2C)C1` [Example 88, 6-acetyl-1-methyl-3-[3-(1-methylpyrazol-4-yl)-8-isoquinolyl]-7,8-dihydro-5H-1,6-naphthyridin-2-one], for which the IC50 stood at 258 nM.

Regarding `CCC(=O)N1CCOc2ccc(N3CCCc4cc(-c5cnn(C)c5)ccc43)cc2C1` [Example 79, 1-(7-(6-(1-methyl-1H-pyrazol-4-yl)-3,4-dihydroquinolin-1(2H)-yl)-2,3-dihydrobenzo[f][1,4]oxazepin-4(5H)-yl)propan-1-one], the IC50 was 77 nM.

`CNC(=O)N1CCOc2ccc(-c3cccc4c3cnn4C)cc2C1` [Example 10]: the IC50 was determined as 96 nM.

As for `Cn1cc(-c2cc3c(cc2C(F)F)N(c2ccc4oc(=O)n(C)c4c2)CCC3)cn1` [Example 91, 5-[7-(difluoromethyl)-6-(1-methylpyrazol-4-yl)-3,4-dihydro-2H-quinolin-1-yl]-3-methyl-1,3-benzoxazol-2-one], the 50% inhibitory concentration (IC50) is 481 nM.

Consider `CNC(=O)N1CCOc2ccc(-c3nccc4ccccc34)cc2C1` [Example 1, 7-(isoquinolin-1-yl)-N-methyl-2,3-dihydrobenzo[f][1,4]oxazepine-4(5H)-carboxamide], for which the IC50 amounted to 187 nM.

For the compound `CNC(=O)N1Cc2cc(N3CCCc4cc(-c5cnn(C)c5)c(C(F)F)cc43)ccc2OC(C)C1` (stereo not drawn) [Example 114, 7-(7-(difluoromethyl)-6-(1-methyl-1H-pyrazol-4-yl)-3,4-dihydroquinolin-1(2H)-yl)-N,2-dimethyl-2,3-dihydrobenzo[f][1,4]oxazepine-4(5H)-carboxamide], the IC50 is 51 nM.

For `CNC(=O)c1cn(C)c2cnc(N3CCCc4cc(-c5cnn(C)c5)c(C(F)F)cc43)nc12` [Example 61], the half-maximal inhibitory concentration (IC50) turned out to be 26 nM.

With `CNc1cc(N2CCCc3cc(-c4cnn(C)c4)c(C(F)F)cc32)cc2c1n(C)c(=O)n2C` [Example 42], the half-maximal inhibitory concentration (IC50) was determined as 19 nM.

Consider `C[C@H]1Nc2c(cccc2N2CCCc3cc(-c4cnn(C)c4)ccc32)NC1=O` [Example 82, (R)-3-methyl-5-(6-(1-methyl-1H-pyrazol-4-yl)-3,4-dihydroquinolin-1(2H)-yl)-3,4-dihydroquinoxalin-2(1H)-one], for which the IC50 is 325 nM.

As for `CNC(=O)c1cn(C)c2c(OC)cc(N3CCCc4cc(-c5cnn(C)c5)c(C(F)F)cc43)cc12` [Example 106, 5-(7-(difluoromethyl)-6-(1-methyl-1H-pyrazol-4-yl)-3,4-dihydroquinolin-1(2H)-yl)-7-methoxy-N,1-dimethyl-1H-indole-3-carboxamide], the IC50 was 16 nM.

With `Cn1cc(-c2cc3c(cc2C(F)F)N(c2cc(C4CC4)c4c(c2)n(C)c(=O)n4C)CCC3)cn1` [Example 38], the 50% inhibitory concentration (IC50) was found to be 16 nM.

In the case of `CNC(=O)c1cccc2oc(-c3cccc4cc(-c5cnn(C)c5)ncc34)nc12` [Example 121, N-methyl-2-(3-(1-methyl-1H-pyrazol-4-yl)isoquinolin-8-yl)benzo[d]oxazole-4-carboxamide], the concentration for half-maximal inhibition (IC50) came to 274 nM.

On to `CNC(=O)c1ccc2c(c1)c(N1CCCc3cc(-c4cnn(C)c4)ccc31)nn2C1CCOCC1` [Example 84], for which the half-maximal inhibitory concentration (IC50) amounted to 87 nM.

As to `CN1C(=O)C(=O)c2ccc(N3CCCc4cc(-c5cnn(C)c5)c(C(F)F)cc43)cc21` [Example 89, 6-[7-(difluoromethyl)-6-(1-methylpyrazol-4-yl)-3,4-dihydro-2H-quinolin-1-yl]-1-methyl-indoline-2,3-dione], the IC50 stood at 78 nM.

As for `CNC(=O)c1ccc2c(c1)n(-c1cccc3cc(-c4cnn(C)c4)ncc13)c(=O)n2C` [Example 103, N,1-dimethyl-3-(3-(1-methyl-1H-pyrazol-4-yl)isoquinolin-8-yl)-2-oxo-2,3-dihydro-1H-benzo[d]imidazole-5-carboxamide], the IC50 worked out at 222 nM.

Regarding `CCn1c(=O)n(C)c2ccc(N3CCCc4cc(-c5cnn(C)c5)c(C(F)F)cc43)cc21` [Example 32], the IC50 amounted to 48 nM.

On to `C#Cc1cc(N2CCCc3cc(-c4cnn(C)c4)c(C(F)F)cc32)cc2c1n(C)c(=O)n2C` [Example 101, 6-(7-(difluoromethyl)-6-(1-methyl-1H-pyrazol-4-yl)-3,4-dihydroquinolin-1(2H)-yl)-4-ethynyl-1,3-dimethyl-1H-benzo[d]imidazol-2(3H)-one], for which the IC50 amounted to 12 nM.

As to `CNC(=O)N1CCOc2c(cc(-c3ccccc3C)cc2OC)C1` [Example 111, 9-methoxy-N-methyl-7-(o-tolyl)-2,3-dihydrobenzo[f][1,4]oxazepine-4(5H)-carboxamide], the IC50 came out at 409 nM.

In the case of `CCn1cc(C(=O)NC)c2cc(N3CCCc4cc(-c5cnn(C)c5)c(C(F)F)cc43)ccc21` [Example 51], the IC50 is 27 nM.

On to `CNC(=O)c1cn(C)nc1C(=O)Nc1cccc2cc(-c3cnn(C)c3)ncc12` [Example 124, N^4,1-dimethyl-N^3-(3-(1-methyl-1H-pyrazol-4-yl)isoquinolin-8-yl)-1H-pyrazole-3,4-dicarboxamide], for which the IC50 is 14 nM.

Consider `CN1CCN(c2ccc3c(c2)n(C)c(=O)n3C)c2cc(C(F)(F)F)c(-c3cnn(C)c3)cc21` [Example 95, 1,3-dimethyl-5-(4-methyl-6-(1-methyl-1H-pyrazol-4-yl)-7-(trifluoromethyl)-3,4-dihydroquinoxalin-1(2H)-yl)-1H-benzo[d]imidazol-2(3H)-one], for which the IC50 stood at 30 nM.

With `CNC(=O)N1CCOc2ccc(-c3ccnc4ccccc34)cc2C1` [Example 4], the IC50 came out at 193 nM.

With `CNC(=O)N1CCOc2ccc(-c3c(C)ccc4c3cnn4C)cc2C1` [Example 3, 7-(1,5-dimethylindazol-4-yl)-N-methyl-3,5-dihydro-2H-1,4-benzoxazepine-4-carboxamide], the IC50 is 57 nM.

Regarding `CCCc1cc(N2CCCc3cc(-c4cnn(C)c4)c(C(F)F)cc32)cc2c1n(C)c(=O)n2C` [Example 99, 6-(7-(difluoromethyl)-6-(1-methyl-1H-pyrazol-4-yl)-3,4-dihydroquinolin-1(2H)-yl)-1,3-dimethyl-4-propyl-1H-benzo[d]imidazol-2(3H)-one], the IC50 came out at 19 nM.

Regarding `Cn1cc(-c2ccc3c(c2)CCCN3c2cnc3[nH]cc(-c4cnn(C)c4)c3n2)cn1` [Example 75, 6-(1-methyl-1H-pyrazol-4-yl)-1-(7-(1-methyl-1H-pyrazol-4-yl)-5H-pyrrolo[2,3-b]pyrazin-2-yl)-1,2,3,4-tetrahydroquinoline], the IC50 amounted to 244 nM.

On to `CNC(=O)c1cn(C)c2ccc(-c3cccc4cc(-c5cnn(C)c5)ncc34)cc12` [Example 49], for which the IC50 is 22 nM.

As to `CNC(=O)N1CCOc2ccc(-c3cccc4ncccc34)cc2C1` [Example 6], the IC50 came to 362 nM.

As to `CN1C(=O)C(C)(C)c2ccc(N3CCCc4cc(-c5cnn(C)c5)c(C(F)F)cc43)cc21` [Example 20], the IC50 came to 1750 nM.

As to `CCc1cc(-c2ccccc2C)cc2c1OCCN(C(=O)NC)C2` [Example 109, 9-ethyl-N-methyl-7-(o-tolyl)-2,3-dihydrobenzo[f][1,4]oxazepine-4(5H)-carboxamide], the IC50 was found to be 273 nM.

As for `CNC(=O)N1CCN(C)c2ccc(-c3ccccc3C)cc2C1` [Example 85, N,1-dimethyl-7-(o-tolyl)-3,5-dihydro-2H-1,4-benzodiazepine-4-carboxamide], the IC50 came out at 450 nM.

With `CNC(=O)N1CCOc2ccc(-c3cccc(-c4cnn(C)c4)c3C(F)F)cc2C1` [Example 77, 7-(2-(difluoromethyl)-3-(1-methyl-1H-pyrazol-4-yl)phenyl)-N-methyl-2,3-dihydrobenzo[f][1,4]oxazepine-4(5H)-carboxamide], the IC50 came out at 187 nM.

Take `Cn1cc(-c2cc3c(cc2C(F)F)N(c2cnc4[nH]cc(-c5cnn(C)c5)c4n2)CCC3)cn1` [Example 74, 7-(difluoromethyl)-6-(1-methyl-1H-pyrazol-4-yl)-1-(7-(1-methyl-1H-pyrazol-4-yl)-5H-pyrrolo[2,3-b]pyrazin-2-yl)-1,2,3,4-tetrahydroquinoline]: the IC50 amounted to 108 nM.
